We go through 7 compounds from US9751857B2, “Hepatitis B antiviral agents” (NOVIRA THERAPEUTICS, INC., priority 2011, dated 2017).

Test [1] addresses HBV C150Bo capsid protein (HBV CA protein) (Hepatitis B virus genotype D subtype adw, UniProt P03147, C107A/C48A/C61A/R150C). Kind of test: HBV assembly assay (fluorescence quenching in vitro assembly). It counts as biochemical. The note with it: at 10 μM.
Test [2] deals with HBV replication in HepG2-2.2.15 cells. Put plainly: Dot-blot assay of HBV replication. It counts as cell-based. The note with it: Hepatitis B virus, 144 h. The procedure:
Compounds active in the HBV assembly assay are tested for their activity and toxicity in cellular assay. In the first anti-viral assay, the ability of compounds to inhibit HBV replication in an HBV-producing hepatoma cell line using the dot-blot method is evaluated.
Briefly, confluent monolayers of HepG2-2.2.15 cells are incubated with complete medium containing various concentrations of a test compound. Three days later, the culture medium is replaced with fresh medium containing the appropriately diluted test compound. Six days following the initial administration of the test compound, the cell culture supernatant is collected, and cell lysis is performed. The samples are applied onto Nylos membranes and DNA is immobilized to the membrane by UV cross-linking. After pre-hybridization, the HBV probe is added and the hybridization is performed overnight. The membranes are exposed to the Kodak films; antiviral activity is calculated from the reduction in HBV DNA levels (EC50). The EC50 for antiviral activity is calculated from the dose response curves of active compounds.
In the first anti-viral assay, the ability of compounds to inhibit HBV replication in an HBV-producing hepatoma cell line using the dot-blot method was evaluated.
Confluent monolayers of HepG2-2.2.15 cells were incubated with complete medium containing various concentrations of a test compound. Three days later, the culture medium was replaced with fresh medium containing the appropriately diluted test compound. Six days following the initial administration of the test compound, the cell culture supernatant was collected, and cell lysis was performed. The samples were applied onto Nylos membranes and DNA was immobilized to the membrane by UV cross-linking. After pre-hybridization, the HBV probe was added and the hybridization was performed overnight. The membranes were exposed to the Kodak films; antiviral activity was calculated from the reduction in HBV DNA levels (EC50). The EC50 for antiviral activity was calculated from the dose response curves of active compounds. […]

Chain of HBV C150Bo capsid protein (HBV CA protein) (P03147 1-150 C48A/C61A/C107A/R150C): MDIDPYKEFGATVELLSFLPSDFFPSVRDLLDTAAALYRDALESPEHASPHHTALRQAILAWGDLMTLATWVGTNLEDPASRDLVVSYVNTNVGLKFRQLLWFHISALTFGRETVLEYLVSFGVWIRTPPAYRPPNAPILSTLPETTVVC

The term inhibition denotes the relative decrease from the control value, in per cent. Consider `O=C(Nc1ccc(F)c(Br)c1)c1ccc(Cl)c(S(=O)(=O)N2CCC(CCO)CC2)c1` [compound 1087], for which the “Activity in HBV assembly assay” value in test [1] is given as “+ (‘+’ indicates >50% activity at 10 μM)”. This compound yielded an inhibition at 10 µM in test [2] greater than 50%.

Turning to `CC1(O)CCN(S(=O)(=O)c2cc(C(=O)Nc3cc(F)c(F)c(F)c3)ccc2F)CC1` [compound 1161], in test [1], the “Activity in HBV assembly assay” value was “+ (‘+’ indicates >50% activity at 10 μM)”. For the same compound, in test [2], the inhibition at 10 µM is greater than 50%.

On to `O=C(Nc1ccc(F)c(Cl)c1)c1ccc(F)c(S(=O)(=O)N2CCC(CO)C(O)C2)c1` (centres unmarked) [955D1], for which the “Activity in HBV assembly assay” value in test [1] is “+ (‘+’ indicates >50% activity at 10 μM)”. The compound further had an inhibition at 10 µM in test [2] greater than 50%.

As for `O=C(Nc1ccc(F)c(Cl)c1)c1cccc(S(=O)(=O)N2CCC(O)(c3ccccc3)CC2)c1` [compound 541], in test [1], the “Activity in HBV assembly assay” value was “+ (‘+’ indicates >50% activity at 10 μM)”. In test [2], this compound yielded an inhibition at 10 µM greater than 50%.

With `O=C(Nc1ccc(F)c(Br)c1)c1cccc(S(=O)(=O)NC2CCCC(O)C2)c1` (centres unmarked) [867D2], the “Activity in HBV assembly assay” value in test [1] is listed as “+ (‘+’ indicates >50% activity at 10 μM)”. In test [2], this compound returned an inhibition at 10 µM greater than 50%.

As for `O=C(Nc1cc(F)c(F)c(F)c1)c1cccc(S(=O)(=O)N2CCC(O)CC2)c1` [compound 318], in test [1], the “Activity in HBV assembly assay” value is on record as “+ (‘+’ indicates >50% activity at 10 μM)”. In test [2], this compound registered an inhibition at 10 µM greater than 50%.

With `O=C(Nc1ccc(F)c(Cl)c1)c1cccc(S(=O)(=O)N2CCC(CO)C(O)C2)c1` (centres unmarked) [725D1], the “Activity in HBV assembly assay” value in test [1] is listed as “+ (‘+’ indicates >50% activity at 10 μM)”. The compound further displayed an inhibition at 10 µM in test [2] greater than 50%.
